# Assay results from patent US5985273A, “Biological control of insects” (priority 1994, dated 1999).
# How the values were obtained:
# Teleogryllus commodus = test: Mortality of black field cricket nymphs on treated cabbage leaf disks; type: in vivo; details: 30 mM; after 7 days
# Procedure: (i) Stock solutions of inhibitors and control solutions were prepared as aqueous solutions or suspensions as outlined in Table 6.1.
# (ii) Mortality was assessed by commencing the study with 1st instar nymphs.
# (iii) Cabbage leaf disks (5×8 mm diameter disks/treatment) were smeared with 100 μl of inhibitor or control stock solutions and allowed to dry. Disks were placed singly in 40 mm petri dishes, together with a moist cotton wool pas as water supply and a piece of fluted plastic for shelter.
# (iv) Ten nymphs were placed on each disc and the dishes incubated at 25° C.
# (v) Mortality was assessed daily and any dead individuals removed.
# Tribolium castaneum = test: Growth and survival of Tribolium castaneum in treated flour; type: in vivo; details: Day 6; all dose levels
# Procedure: Insects were cultured in cleaned, ground and sieved wholemeal flour made from organic wheat. Inhibitors from bottles of pre-weighed material were dry-mixed with the flour and residual inhibitor rinsed from bottles with a small volume of water. Rinse water was added to the flour and the mixture re-ground. The impregnated flour was transferred to a 20 mL vial and mixed thoroughly by shaking and inverting. Adults of T. castaneum were allowed to oviposit on flour, eggs were sifted from the flour and transferred one by one with a single hair to microwell tubes containing a small amount of flour. Each level of treatment was performed in triplicated using 32 wells/replicate. Assays were performed in triplicated. Cultures were incubated at 30° C. and 55% R H. After 6 days each replicate of 32 wells was combined, the larvae counted and the numbers compared with numbers in the control (no inhibitor) treatment. Larvae were classified as "small" if appreciably smaller than reference larvae, or abnormal if unusual behaviour or formation were observed (eg. twisting or twisted larvae). Test inhibitors and dose rates were the same as those used in Example 4.
# Ctenocephalides felis = test: Development of cat flea eggs in dried blood diets; type: in vivo; details: Day 16
# Procedure: Blood was collected from the jugular vein of a five year old merino sheep that had not been treated with an ectoparasitic agent for 18 months. The blood was collected into a 100 ml plastic bottle containing 0.8 ml of heparin and was maintained at 4° C. Inhibitors were pre-weighed into sterile 5 ml plastic vials and 4.5 ml of blood added. The samples were mixed, placed at -70° C. for 24 hours, then freeze-dried. The freeze-dried samples were sieved through a stainless steel 63 micron sieve, and placed into sterile 5 ml plastic vials (0.15 g/per tube). Four flea eggs were placed into each vial, and a sheet of tissue paper fastened by an elastic band was fitted to the top of each vial. The vials were incubated at 25° C. and 70-80% R H for 6 days. Vermiculite was then added to each vial to provide a supporting medium for the fleas to pupate and the tubes incubated at 25° C. and 70-80% R H, for a further 10 days. Ten control vials and three vials of each treatment were tested.
# At the conclusion of the incubation period the vials were placed at -20° C. for 24 hours to kill the fleas. The number of eggs hatched and the life-cycle state was recorded.
# [1] = test system: Heliothis punctigens larvae; test: Growth and survival of cotton budworm larvae fed an artificial diet; type: in vivo; details: 10 days; for % Alive: control 70.0; for Average Laval Weight: control 165.4
# Procedure: 1. The Haricot beans were cooked in a microwave for 40 minutes. 2. Agar was added to the hot water and stirred on a hot plate until almost boiling. 3. The haricot beans, agar mix, yeast and wheat germ was blended in an electric mixer for 3 minutes. 4. When the temperature has dropped to 60°C., the acids were added and mixed with the media. […] Inhibitor solutions or an equal volume of water were placed into sterilized glass tubes at designated concentrations. The artificial media was added to each tube (1.5 ml) using a sterile 10 ml syringe. First instar Heliothis punctigens larvae (1 larvae per tube) were added to the glass tubes and the tubes were capped. The tubes were incubated for 10 days at 25° C. The larvae were killed by placing the glass tubes at -70° C. for 24 hours, and then individually weighed. Percentage inhibition was calculated by comparison to control larvae.
# L. cuprina eggs = test: Egg hatch of L. cuprina on liver in vitro; type: in vivo, Lucilia cuprina; details: 24 hours at 35° C., control 71
# Procedure: L. cuprina eggs were placed on pieces of liver (0.9 g) which were then placed in individual wells of a 24-well tissue culture plate. Phosphate buffered saline (PBS, 0.1 ml) containing inhibitors at set concentrations were added to each well with 30 freshly laid and sterilised eggs of L. cuprina. The culture plate was then maintained in a sterile environment at 35° C. for 24 hours, after which time the percentage hatch was assessed.
# O. surinamensis larvae = test: Weight reduction of Oryzaephylus surinamensis larvae in treated flour; type: in vivo
# Procedure: Insects were cultured in cleaned, ground and sieved wholemeal flour made from organic wheat. Inhibitors from bottles of pre-weighed material were dry-mixed with the flour and residual inhibitor rinsed from bottles with a small volume of water. Rinse water was added to the flour and the mixture re-ground. The impregnated flour was transferred to a 20 mL vial and mixed thoroughly by shaking and inverting.
# Adults of T. castaneum were allowed to oviposit on flour, eggs were sifted from the flour and transferred one by one with a single hair to microwell tubes containing a small amount of flour. Each level of treatment was performed in triplicated using 32 wells/replicate. Assays were performed in triplicated. Cultures were incubated at 30° C. and 55% R H.
# The bioassay for this insect was outlined for T. castaneum, except incubations were conducted at 32.5° C. and 70% R H. After 8 days the insects were sieved from the flour and weighed.
# Lucilia cuprina larvae = test: Growth and survival of first instar sheep blowfly larvae on culture medium with inhibitor; type: in vivo; details: for % Growth Incubation / Average Larval Weight: Table 2.3; for Average Larval Weight: control 9.08
# [2] = test system: Bovicola ovis (Hartley strain); test: Survival of sheep lice on inhibitor treated wool; type: in vivo; details: of 10 lice
smiles,measurement,setting,value
"O=C(O)CN(CCN(CC(=O)O)CC(=O)O)CC(=O)O [EDTA, ethylene diamine tetraacetic acid]",Mortality,Teleogryllus commodus,78%
same,Mortality (class),Teleogryllus commodus,High (high 41-100%)
same,Larval size classification,Tribolium castaneum,small
same,Percentage of Fleas Progressing Through to Pupation,"Ctenocephalides felis; 1.5625 mg in 4.5 ml of blood, control 97.5",0%
same,Percentage of Fleas Progressing Through to Pupation,Ctenocephalides felis; 3.125 mg in 4.5 ml of blood,0%
same,Percentage of Fleas Progressing Through to Pupation,Ctenocephalides felis; 6.25 mg in 4.5 ml of blood,0%
same,% Alive,[1]; 2.5 mM,50.0%
same,Average Laval Weight,[1]; 2.5 mM,123.6 mg
same,% Alive,[1]; 5.0 mM,33.3%
same,Average Laval Weight,[1]; 5.0 mM,9.25 mg
same,% Alive,[1]; 10.0 mM,67.0%
same,Average Laval Weight,[1]; 10.0 mM,4.75 mg
same,inhibition at 2500 µM,"[1]; Heliothis, 240 h, 2.5 mM, read-out: % Growth Inhibition",25.3%
same,inhibition at 5000 µM,"[1]; Heliothis, 240 h, 5.0 mM, read-out: % Growth Inhibition",94.4%
same,inhibition at 10000 µM,"[1]; Heliothis, 240 h, 10.0 mM",97.1%
same,% Hatch,L. cuprina eggs; 2 mM,10%
same,% Hatch,L. cuprina eggs; 5 mM,0%
same,% Hatch,L. cuprina eggs; 10 mM,10%
same,inhibition at 10000 µM,"O. surinamensis larvae; 192 h, 10 mM, 8 days, relative to untreated larvae, read-out: Percentage Growth Inhibition",32%
same,inhibition at 20000 µM,"O. surinamensis larvae; 192 h, 20 mM, 8 days, relative to untreated larvae, read-out: Percentage Growth Inhibition",4%
same,inhibition at 30000 µM,"O. surinamensis larvae; 192 h, 30 mM, 8 days, relative to untreated larvae, read-out: Percentage Growth Inhibition",28%
same,"Growth inhibition, summary in words",O. surinamensis larvae; text summary of Table 9.1,moderately effective
same,"Effect on larval growth, summary in words","Lucilia cuprina larvae; Example 1, Table 1.2",effective growth inhibitors
same,inhibition at 5000 µM,"Lucilia cuprina larvae; Lucilia cuprina, first instar larvae, 5 mM",84%
same,% Growth Incubation,Lucilia cuprina larvae; 0.25 mM,-6.6%
same,Average Larval Weight,Lucilia cuprina larvae; 0.25 mM,9.68 10^-4 g
same,% Growth Incubation,Lucilia cuprina larvae; 0.50 mM,39.8%
same,Average Larval Weight,Lucilia cuprina larvae; 0.50 mM,5.47 10^-4 g
same,% Growth Incubation,Lucilia cuprina larvae; 1.0 mM,69.7%
same,Average Larval Weight,Lucilia cuprina larvae; 1.0 mM,2.75 10^-4 g
same,% Growth Incubation,Lucilia cuprina larvae; 1.5 mM,51.2%
same,Average Larval Weight,Lucilia cuprina larvae; 1.5 mM,4.43 10^-4 g
same,% Growth Incubation,Lucilia cuprina larvae; 2.0 mM,72.4%
same,Average Larval Weight,Lucilia cuprina larvae; 2.0 mM,2.51 10^-4 g
same,Larval survival,"Lucilia cuprina larvae; first instar larvae, 10 mM",All killed
same,Number of Living Lice,"[2]; Adult, 10 mM, 24 Hours at 35° C.",2
same,Number of Living Lice,"[2]; Adult, 20 mM, 24 Hours at 35° C.",1
same,Number of Living Lice,"[2]; Adult, third EDTA line, concentration not given, 24 Hours",0
same,Number of Living Lice,"[2]; instar 1, 10 mM, 24 Hours at 35° C.",0
same,Number of Living Lice,"[2]; instar 1, 20 mM, 24 Hours at 35° C.",0
same,Number of Living Lice,"[2]; instar 1, third EDTA line, concentration not given, 24 Hours",0
same,Number of Living Lice,"[2]; instar 2, 10 mM, 24 Hours at 35° C.",2
same,Number of Living Lice,"[2]; instar 2, 20 mM, 24 Hours at 35° C.",1
same,Number of Living Lice,"[2]; instar 2, third EDTA line, concentration not given, 24 Hours",0
same,Number of Living Lice,"[2]; instar 3, 10 mM, 24 Hours at 35° C.",1
same,Number of Living Lice,"[2]; instar 3, 20 mM, 24 Hours at 35° C.",0
same,Number of Living Lice,"[2]; instar 3, third EDTA line, concentration not given, 24 Hours",0
